Where two headings read alike, the source gives them in different places.
Columns and labels:
hSSTR5 = molecular target: T1, hSSTR5 (Homo sapiens, UniProt P35346); experiment: Somatostatin receptor radioligand binding assay (hSSTR5); details: CHO-K1 cell membranes; 0.05 nM [125I-Tyr]-[DPhe-cyclo(Cys-Tyr-DTrp-Lys-Val-Cys)-Thr-NH2]; 60 minutes at 25°C; read-out: hSSTR5 Ki (nM) ± SEM
T1 construct: expressed in transfected cells; host or cells: CHO-K1 (ATCC), pcDNA3.1, G418-selected clonal line; membranes
Description: (§5) The affinities of a test compound for the human somatostatin receptors were determined by radioligand binding assays in CHO-K1 cells stably transfected with each of the human somatostatin receptor subtypes, hSSTR1-5. […] Clonal cell lines stably expressing each of the somatostatin receptors were obtained by transfection into CHO-K1 cells (ATCC) and subsequently selected with culture media containing 0.8 mg/mL of G418 (Life Technologies).
(§6) Membranes for in vitro receptor binding assays were obtained by the following procedures. […] The supernatant containing the plasma membranes was centrifuged at 100,000 x g for 30 minutes and the pellet was resuspended in buffer containing 20 mM glycine-glycine, 1 mM MgCl2, 250 mM sucrose, pH 7.2, for storage at -80°C.
(§7) For the SSTR1, 2 and 5 assays, membranes and various concentrations of test compounds were incubated in 96-well plates for 60 minutes at 25°C with 0.05 nM [^125I-Tyr^11]-SRIF-14 (for hSSTR1; PerkinElmer Life Science), 0.05 nM [^125I-Tyr]-seglitide (for hSSTR2; PerkinElmer Life Science) or 0.05 nM [^125I-Tyr]-[DPhe-cyclo(Cys-Tyr-DTrp-Lys-Val-Cys)-Thr-NH2] (for hSSTR5; PerkinElmer Life Science) in 50 mM HEPES, 0.2% BSA, 0.1 mM MgCl2, pH 7.5.

hSSTR4 = molecular target: T2, hSSTR4 (Homo sapiens, UniProt P31391); experiment: Somatostatin receptor radioligand binding assay (hSSTR4); details: CHO-K1 cell membranes; 0.05 nM [125I-Tyr11]-SRIF-14; 60 minutes at 25°C; read-out: hSSTR4 Ki (nM) ± SEM
T2 construct: expressed in transfected cells; host or cells: CHO-K1 (ATCC), pcDNA3.1, G418-selected clonal line; membranes
Description: (§1) The affinities of a test compound for the human somatostatin receptors were determined by radioligand binding assays in CHO-K1 cells stably transfected with each of the human somatostatin receptor subtypes, hSSTR1-5. The cDNA coding sequences of hSSTR1 (GenBank accession No. NM_001049.1), hSSTR2 (GenBank accession No. XM_012697.1), hSSTR3 (GenBank accession No. XM_009963.1), hSSTR4 (GenBank accession No. NM_001052.1), and hSSTR5 (GenBank accession No. XM_012565.1) were subcloned into the mammalian expression vector pcDNA3.1 (Life Technologies). Clonal cell lines stably expressing each of the somatostatin receptors were obtained by transfection into CHO-K1 cells (ATCC) and subsequently selected with culture media containing 0.8 mg/mL of G418 (Life Technologies).
(§2) Membranes for in vitro receptor binding assays were obtained by the following procedures. CHO-K1 cells expressing one of the somatostatin receptors were homogenized in ice-cold buffer with 10 mM Tris-HCl, 5 mM EDTA, 3 mM EGTA, 1 mM phenylmethylsuphonyl fluoride, pH 7.6, using Polytron PT10-35GT (Kinematica) at 18,000 rpm for 30 seconds and centrifuged at 500 x g for 10 minutes. The supernatant containing the plasma membranes was centrifuged at 100,000 x g for 30 minutes and the pellet was resuspended in buffer containing 20 mM glycine-glycine, 1 mM MgCl2, 250 mM sucrose, pH 7.2, for storage at -80°C.
(§3) For the hSSTR3 and 4 assays, membranes and various concentrations of test compounds were incubated in 96-well plates for 60 minutes at 25°C with 0.05 nM [^125I-Tyr^11]-SRIF-14 (PerkinElmer Life Science) in 50 mM HEPES, 0.2% BSA, 5 mM MgCl2, 200 KIU/mL trasylol, 0.02 mg/mL bacitracin, and 0.02 mg/mL phenylmethylsuphonyl fluoride, pH 7.5.
(§4) The incubations were terminated by rapid filtration through GF/C glass microfiber filter plates (pre-wet with 0.3% polyethyleneimine and 0.1 % BSA) using a 96-well cell harvester (Brandel). Plates were washed six times with 1 mL/well aliquots of ice-cold buffer containing 50 mM Tris buffer, pH 7.7. Specific binding was defined as the total radioligand bound minus the bound in the presence of 1000 nM SRIF-14.

hDRD2 [1] = molecular target: T3, hDRD2 (Homo sapiens, UniProt P14416); experiment: biochemical; type: binding; set-up: expressed in transfected cells; host or cells: CHO-K1, pcDNA3.1/GS, zeocin-selected clonal line; membranes
hDRD2 [2] = molecular target: T3, hDRD2; experiment: cell-based; set-up: host or cells: 'Cells expressing hDRD2'; details: read-out: hDRD2 %Emax ± SEM
hSSTR3 = molecular target: T4, hSSTR3 (Homo sapiens, UniProt P32745); experiment: Somatostatin receptor radioligand binding assay (hSSTR3); details: CHO-K1 cell membranes; 0.05 nM [125I-Tyr11]-SRIF-14; 60 minutes at 25°C; read-out: hSSTR3 Ki (nM) ± SEM
T4 construct: expressed in transfected cells; host or cells: CHO-K1 (ATCC), pcDNA3.1, G418-selected clonal line; membranes
Description: as §1, §2, §3, §4

hSSTR1 = molecular target: T5, hSSTR1 (Homo sapiens, UniProt P30872); experiment: Somatostatin receptor radioligand binding assay (hSSTR1)
T5 construct: expressed in transfected cells; host or cells: CHO-K1 (ATCC), pcDNA3.1, G418-selected clonal line; membranes
Description: as §5, §6, §7

hSSTR2 [3] = molecular target: T6, hSSTR2 (Homo sapiens, UniProt P30874); experiment: Somatostatin receptor radioligand binding assay (hSSTR2);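 note: radioligand displacement on membranes of CHO-K1 cells stably transfected with human SSTR2, specific binding taken as total minus binding left with 1000 nM SRIF-14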
T6 construct: host or cells: 'Cells expressing hSSTR2'
Description: as §5, §6, §7

[4] = tested on: pituitary tumor cells of acromegalic patients presenting with macroadenoma; experiment: Human pituitary adenoma cell growth hormone release assay; type: cell-based; details: incubated for 18 hours; Growth hormone levels in the medium by AlphaLISA; Figure 5
Description: • Figure 1 is a graph showing the Growth hormone suppressing activity of Compound 4 (see Table I hereinbelow for its chemical name and its corresponding structural representation) on pituitary tumor cells of acromegalic patients presenting with macroadenoma. Various concentrations of Compound 4 were added to the medium and the cells were incubated for 18 hours before measurement of Growth hormone levels in the medium using the AlphaLISA Growth Hormone Immunoassay Research kit (PerkinElmer). • Figure 2 is a graph showing the Growth hormone suppressing activity of Compounds 5 , 6, and 7 (see Table I hereinbelow for their chemical name and their corresponding structural representation) on pituitary tumor cells of acromegalic patients presenting with macroadenoma. Various concentrations of Compounds 5, 6, and 7 were added to the medium and the cells were incubated for 18 hours before measurement of Growth hormone levels in the medium using the AlphaLISA Growth Hormone Immunoassay Research kit (PerkinElmer). • Figure 3 is a graph showing the Growth hormone suppressing activity of Compounds 4, 6, 7, 8, and 9 (see Table I hereinbelow for their chemical name and their corresponding structural representation) on pituitary tumor cells of acromegalic patients presenting with macroadenoma. […]

hSSTR2 [5] = molecular target: T6, hSSTR2; experiment: Intracellular calcium mobilization assay (FLIPR Calcium 4), hSSTR2; type: cell-based; details: receptor not named;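 note: agonist activity measured in cells expressing hSSTR2, seeded in 384-well plates, loaded with Calcium 4 dye, read-out as rise in intracellular calcium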
[6] = CHO-K1 cell membranes, […] [3H]-spiperone, 60 minutes at 25°C, read-out: hDRD2 Ki (nM) ± SEM
[7] = CHO-K1 cell membranes, 0.05 nM [125I-Tyr11]-SRIF-14, 60 minutes at 25°C, read-out: hSSTR1 Ki (nM) ± SEM
[8] = CHO-K1 cell membranes, 0.05 nM [125I-Tyr]-seglitide, 60 minutes at 25°C, read-out: hSSTR2 Ki (nM) ± SEM
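Throughout, for Emax: agonist activity at human DRD2 in DRD2-expressing cells, read as intracellular calcium mobilization with a FLIPR Calcium 4 fluorescent dye.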

T1 sequence (P35346 whole entry): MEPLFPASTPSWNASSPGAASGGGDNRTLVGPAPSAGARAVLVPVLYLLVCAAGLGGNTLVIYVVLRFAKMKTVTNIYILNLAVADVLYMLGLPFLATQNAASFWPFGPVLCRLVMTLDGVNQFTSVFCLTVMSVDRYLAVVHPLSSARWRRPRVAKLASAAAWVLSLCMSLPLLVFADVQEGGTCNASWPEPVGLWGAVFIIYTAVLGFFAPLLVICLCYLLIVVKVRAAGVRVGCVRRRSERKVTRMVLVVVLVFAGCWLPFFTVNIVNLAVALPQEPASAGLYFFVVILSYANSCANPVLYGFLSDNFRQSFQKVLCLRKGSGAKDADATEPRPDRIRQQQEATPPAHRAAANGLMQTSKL
T4 sequence (P32745 whole entry): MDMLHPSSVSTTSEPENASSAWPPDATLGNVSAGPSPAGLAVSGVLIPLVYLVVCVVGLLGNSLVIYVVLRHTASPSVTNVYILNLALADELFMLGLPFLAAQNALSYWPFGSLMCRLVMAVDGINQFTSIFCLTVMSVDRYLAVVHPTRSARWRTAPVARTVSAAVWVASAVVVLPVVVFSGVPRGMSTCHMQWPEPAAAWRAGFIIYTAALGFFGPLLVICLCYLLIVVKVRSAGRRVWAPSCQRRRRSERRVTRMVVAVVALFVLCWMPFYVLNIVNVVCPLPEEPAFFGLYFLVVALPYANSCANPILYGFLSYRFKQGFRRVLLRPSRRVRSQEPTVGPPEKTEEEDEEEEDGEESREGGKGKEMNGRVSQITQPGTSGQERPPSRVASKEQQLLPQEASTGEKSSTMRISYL
T5 sequence (P30872 whole entry): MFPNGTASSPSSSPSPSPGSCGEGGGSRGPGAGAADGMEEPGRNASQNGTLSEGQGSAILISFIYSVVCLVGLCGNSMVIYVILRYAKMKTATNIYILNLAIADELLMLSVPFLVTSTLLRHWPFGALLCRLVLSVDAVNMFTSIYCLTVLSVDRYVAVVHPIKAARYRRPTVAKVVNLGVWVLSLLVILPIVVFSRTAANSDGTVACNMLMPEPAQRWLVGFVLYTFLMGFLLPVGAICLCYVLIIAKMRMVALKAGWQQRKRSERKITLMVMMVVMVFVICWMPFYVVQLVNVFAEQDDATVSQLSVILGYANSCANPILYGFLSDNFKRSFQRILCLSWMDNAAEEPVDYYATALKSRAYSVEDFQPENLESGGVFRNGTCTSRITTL
T3 sequence (P14416 whole entry): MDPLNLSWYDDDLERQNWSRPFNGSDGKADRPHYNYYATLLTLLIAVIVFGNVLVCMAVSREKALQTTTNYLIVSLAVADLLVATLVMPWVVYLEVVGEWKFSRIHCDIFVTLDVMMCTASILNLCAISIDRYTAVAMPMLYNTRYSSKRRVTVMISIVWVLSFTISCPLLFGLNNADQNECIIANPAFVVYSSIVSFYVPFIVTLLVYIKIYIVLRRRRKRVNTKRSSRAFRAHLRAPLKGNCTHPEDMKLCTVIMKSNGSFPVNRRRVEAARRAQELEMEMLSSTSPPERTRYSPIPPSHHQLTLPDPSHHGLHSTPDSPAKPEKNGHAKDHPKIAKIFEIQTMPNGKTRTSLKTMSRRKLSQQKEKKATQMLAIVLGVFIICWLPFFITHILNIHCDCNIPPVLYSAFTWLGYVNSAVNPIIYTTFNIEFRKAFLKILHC
T6 sequence (P30874 whole entry): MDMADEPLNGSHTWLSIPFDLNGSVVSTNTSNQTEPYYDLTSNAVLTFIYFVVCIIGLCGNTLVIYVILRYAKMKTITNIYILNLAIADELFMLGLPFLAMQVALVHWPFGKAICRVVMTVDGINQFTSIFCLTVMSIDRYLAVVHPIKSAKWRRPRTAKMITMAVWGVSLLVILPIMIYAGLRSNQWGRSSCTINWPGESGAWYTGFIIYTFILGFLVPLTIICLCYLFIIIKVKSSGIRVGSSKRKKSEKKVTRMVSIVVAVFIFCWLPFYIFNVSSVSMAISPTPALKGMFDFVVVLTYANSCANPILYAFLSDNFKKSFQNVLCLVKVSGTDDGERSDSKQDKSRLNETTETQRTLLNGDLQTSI
T2 sequence (P31391 whole entry): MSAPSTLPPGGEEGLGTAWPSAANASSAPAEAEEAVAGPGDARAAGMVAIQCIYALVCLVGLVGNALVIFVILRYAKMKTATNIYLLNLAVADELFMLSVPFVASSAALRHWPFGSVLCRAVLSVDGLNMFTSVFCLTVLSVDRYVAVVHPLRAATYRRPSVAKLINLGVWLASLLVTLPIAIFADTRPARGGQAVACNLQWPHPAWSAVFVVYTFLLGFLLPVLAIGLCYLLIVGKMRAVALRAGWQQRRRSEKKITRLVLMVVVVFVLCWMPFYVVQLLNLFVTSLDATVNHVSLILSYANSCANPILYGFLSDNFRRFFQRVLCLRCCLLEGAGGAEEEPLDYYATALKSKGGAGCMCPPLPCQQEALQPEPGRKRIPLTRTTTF

| Structure (SMILES) | Ki (hSSTR5) [nM] | Ki (hSSTR4) [nM] | Ki (hDRD2 [1]) [nM] | Emax (hDRD2 [2]) [%] | Ki (hSSTR3) [nM] | Ki (hSSTR1) [nM] | Ki (hSSTR2 [3]) [nM] | Ki (hDRD2 [1]; [6]) [nM] | Growth hormone suppressing activity compared to the parent somatostatin analogs [4] | improvement in EC50 and/or %Emax over Reference Compound B (hSSTR2 [5]) | Ki (hSSTR1; [7]) [nM] | Ki (hSSTR2 [3]; [8]) [nM] | improvement in %Emax over Reference Compound C (hSSTR2 [5]) |
| --- | --- | --- | --- | --- | --- | --- | --- | --- | --- | --- | --- | --- | --- |
| CC(=O)N(CCC(=O)NC(CN[C@@H]1CCCCNC(=O)[C@H](Cc2ccc(F)cc2)NC(=O)[C@H]([C@@H](C)O)NC(=O)[C@H](CCCCN)NC(=O)[C@@H](Cc2c[nH]c3ccccc23)NC(=O)[C@H](Cc2ccccc2)NC(=O)[C@H](Cc2ccccc2)NC(=O)[C@H](CCCNC(=N)N)NC1=O)Cc1ccc(O)cc1)C[C@@H]1C[C@@H]2c3cccc4[nH]cc(c34)C[C@H]2N(C)C1 (single isomer, unassigned) [Compound 27, 3-[N-acetyl-N-(D-6-methyl-8β-ergolinylmethyl)]-aminopropionyl-Tyr-psi(CH2NH)-cyclo(DLys-Arg-Phe-Phe-DTrp-Lys-Thr-4FPhe)] | 0.53 ± 0.1 | 7.3 ± 1.3 | 277 ± 55.5 | 86.3 ± 8 | 0.9 ± 0.1 | 24.4 ± 12 | 0.32 ± 0.04 | – | – | – | – | – | – |
| C[C@@H](O)[C@@H]1NC(=O)[C@H](CCCCN)NC(=O)[C@@H](Cc2c[nH]c3ccccc23)NC(=O)[C@H](Cc2ccncc2)NC(=O)[C@H](Cc2ccccc2)NC(=O)[C@H](CCCNC(=N)N)NC(=O)[C@H](NC[C@H](Cc2ccc(O)cc2)NC(=O)CSC[C@@H]2C[C@@H]3c4cccc5[nH]cc(c45)C[C@H]3N(C)C2)CCCCNC(=O)[C@H](Cc2ccccc2)NC1=O [Compound 4, Dop1-Tyr-psi(CH2NH)-cyclo(DLys-Arg-Phe-4Pal-DTrp-Lys-Thr-Phe)] | 0.92 ± 0.1 | 93.5 ± 47.7 | – | 106 ± 2.4 | 10.6 ± 0.5 | – | – | 182.5 ± 1.7 | enhanced Growth hormone suppressing activity | statistically significant improvement in EC50 and/or %Emax | 38.1 ± 12.5 | 0.12 ± 0.01 | – |
| C[C@@H](O)[C@@H]1NC(=O)[C@H](CCCCN)NC(=O)[C@@H](Cc2c[nH]c3ccccc23)NC(=O)[C@H](Cc2ccccc2)NC(=O)[C@H](Cc2ccccc2)NC(=O)[C@H](CCCNC(=N)N)NC(=O)[C@H](NC[C@H](Cc2ccc(O)cc2)NC(=O)CSC[C@@H]2C[C@@H]3c4cccc5[nH]cc(c45)C[C@H]3N(C)C2)CCCCNC(=O)[C@H](Cc2ccc(F)cc2)NC1=O [Compound 5, Dop1-Tyr-psi(CH2NH)-cyclo(DLys-Arg-Phe-Phe-DTrp-Lys-Thr-4FPhe)] | 1.65 ± 0.8 | 25.2 ± 9 | – | 98.7 ± 2.3 | 1.5 ± 0.3 | – | – | 28.5 ± 12.8 | enhanced Growth hormone suppressing activity | statistically significant improvement in EC50 and/or %Emax | 9 ± 0.3 | 0.34 ± 0.09 | – |
| C[C@@H](O)[C@@H]1NC(=O)[C@H](CCCCN)NC(=O)[C@@H](Cc2c[nH]c3ccccc23)NC(=O)[C@H](Cc2ccncc2)NC(=O)[C@H](Cc2ccccc2)NC(=O)[C@H](CCCNC(=N)N)NC(=O)[C@H](NC[C@H](CCCCNC(=O)CSC[C@@H]2C[C@@H]3c4cccc5[nH]cc(c45)C[C@H]3N(C)C2)NC(=O)CSC[C@@H]2C[C@@H]3c4cccc5[nH]cc(c45)C[C@H]3N(C)C2)CCCCNC(=O)[C@H](Cc2ccc(O)cc2)NC1=O [Compound 8, Dop1-Lys(Dop1)-psi(CH2NH)-cyclo(DLys-Arg-Phe-4Pal-DTrp-Lys-Thr-Tyr)] | 1.49 ± 0.3 | 60.7 ± 15.7 | – | 94.7 ± 0.8 | 7.5 ± 0.3 | – | – | 113 ± 35 | – | – | 106 ± 7.9 | 0.21 ± 0.08 | statistically significant improvement in %Emax |
| C[C@@H](O)[C@@H]1NC(=O)[C@H](CCCCN)NC(=O)[C@@H](Cc2c[nH]c3ccccc23)NC(=O)[C@H](Cc2ccncc2)NC(=O)[C@H](Cc2ccccc2)NC(=O)[C@H](CCCNC(=N)N)NC(=O)[C@H](NC[C@H](CCCCNC(=O)CSC[C@@H]2C[C@@H]3c4cccc5[nH]cc(c45)C[C@H]3N(C)C2)NC(=O)CSC[C@@H]2C[C@@H]3c4cccc5[nH]cc(c45)C[C@H]3N(C)C2)CCCCNC(=O)[C@H](Cc2ccccc2)NC1=O [Compound 9, Dop1-Lys(Dop1)-psi(CH2NH)-cyclo(DLys-Arg-Phe-4Pal-DTrp-Lys-Thr-Phe)] | 1.54 ± 0.3 | 24 ± 3.6 | – | 92.8 ± 3.8 | 4 ± 0.5 | – | – | 39.2 ± 8.3 | – | – | 41.9 ± 21.1 | 0.13 ± 0.06 | statistically significant improvement in %Emax |

From patent publication EP2914280B1, “SOMATOSTATIN-DOPAMINE CHIMERIC ANALOGS” (IPSEN PHARMA S.A.S., priority 2012, dated 2014)
